Patent publication US10543216B2, “Modus of administration of iron, and new formulations adapted for the said goal” (BIOFER S.P.A., priority 2013, dated 2020)

Test system: Pig esophageal epithelium
Experiment: in vitro permeation in the Franz cell (model of sublingual absorption)
Conditions: Franz cell, pig esophageal epithelium, 37° C.
Experimental: Sublingual absorption of Fe++ compounds was evaluated by means of in vitro permeation experiments using the Franz cell exemplified in FIG. 1. Pig esophageal epithelium was used as membrane. This experimental model is recognized as valid and reliable in the assessment of sublingual absorption of drugs [I. Diaz Del Consuelo, G. P. Pizzolato, F. Falsom, R. H. Guy, and Y. Jacques.: Evaluation of pig esophageal mucosa as a permeability barrier model for buccosal tissue. J. Pharm. […] Arch. […] Membrane preparation occurred by following the method described here. The esophagi were taken from the animals within one hour after sacrifice. The mucosa was separated from the muscle tissue with a lancet. To separate the epithelium, the mucosa was immersed in distilled water at 60° C. for 2 minutes and then the epithelium was removed from the underlying tissue with the aid of a spatula. The tissues thus prepared were stored at −20° C. until the time of use, when they were thawed to room temperature before being mounted on the vertical diffusion cells of the Franz type, a schematic view of which is shown in FIG. 1. The esophageal epithelium was placed on a regenerated cellulose filter (pore diameter 0.45 μm) with the luminal side facing up, and mounted between the donor and receptor compartments of the Franz cells. […] The exposed surface was 0.6 cm^2. The receptor compartment was filled with approximately 4 ml of physiological solution (0.9% NaCl w/v) and kept under constant magnetic agitation for the entire duration of the experiment. The entire system was thermostat-controlled at 37° C. Sampling of the receptor compartment was performed by drawing 200 μl of receptor solution, which were replaced immediately with an equal volume of fresh physiological solution. The samples were taken at preset time intervals, specifically at 0, 1, 2, 3, 4, 5 and 6 hours.
4 g of powder were suspended in 10 ml of physiological solution and left under agitation for 15 minutes, then the solution was filtered with regenerated cellulose filters (pore diameter 0.45 μm).
6 g of powder were suspended in 10 ml of physiological solution. The suspension was left under magnetic agitation for 25 minutes and then filtered with regenerated cellulose filters (pore diameter 0.45 μm).
7 g of powder were suspended in 6 ml of physiological solution. The suspension was left under magnetic agitation for 1 hour; at the end it was filtered with regenerated cellulose filters (pore diameter 0.45 μm).
An excess of ascorbic acid (2 g) was added to the solution. The suspension was left under magnetic agitation for 30 minutes and after filtration through regenerated cellulose filters (pore diameter 0.45 μm) was used as it was.
4 g of powder were suspended in 10 ml of physiological solution. The suspension was left under magnetic agitation for 15 hours, at the end of which it was filtered with regenerated cellulose filters (pore diameter 0.45 μm).
An excess of powder was suspended in 10 ml of physiological solution. The suspension was left under magnetic agitation for 15 hours, at the end of which it was filtered with regenerated cellulose filters (pore diameter 0.45 μm).

ferric citrate
permeation / absorption through the epithelium (in words): appreciable only at very low pH values
